Laboratory results from US11964953B2, “Substituted aminothiazoles as DGKzeta inhibitors for immune activation” (Bayer Aktiengesellschaft, priority 2020, dated 2024).

molecular target: human DGKζ (Homo sapiens (Human), UniProt Q13574); assay: Human DGKζ kinase activity inhibition assay (ADP-Glo); type: biochemical; details: in vitro human DGKζ kinase activity inhibition assay; read-out: IC50
Procedure: Human DGKζ Kinase Activity Inhibition Assay. Human diacylglycerol kinase zeta (DGKζ) inhibitory activity of compounds of the present invention was quantified employing the human DGKζ kinase activity assay as described in the following paragraphs. In essence, the enzyme activity was measured by quantification of the adenosine-di-phosphate (ADP) generated as a co-product of the enzyme reaction via the “ADP-Glo™ Kinase Assay” kit from the company Promega. This detection system works as follows: In a first step the adenosine-tri-phosphate (ATP) not consumed in the kinase reaction is quantitatively converted to cyclic adenosine-mono-phosphate (cAMP) employing an adenylate cyclase (“ADP-Glo-reagent”), then the adenylate cyclase is stopped and the ADP generated in the kinase reaction is converted to ATP, which subsequently generates in a luciferase-based reaction a glow-luminescence signal (“Kinase Detection Reagent”). C-terminally FLAG-tagged, recombinant full-length human DGKζ (in house expressed in baculovirus infected insect cells, purified using anti-Flag pulldown and size exclusion chromatography) was used as enzyme. As an alternative, commercially available enzyme by Carnabio can be used. […] Subsequently, 22.55 volumes of a 510 mM solution of octyl-β-D-glucopyranoside (Sigma-Aldrich, Cat. #O8001-10G) in 50 mM MOPS buffer (pH 7.4) were added, and the mixture was sonicated in an ultrasonic bath for 20 s. […] Viewlux™ from Perkin-Elmer). The amount of emitted light was taken as a measure for the amount of ADP generated and thereby for the activity of the DGKζ.

Chain of human DGKζ (Q13574 other isoform, or with tags, fused parts or gaps): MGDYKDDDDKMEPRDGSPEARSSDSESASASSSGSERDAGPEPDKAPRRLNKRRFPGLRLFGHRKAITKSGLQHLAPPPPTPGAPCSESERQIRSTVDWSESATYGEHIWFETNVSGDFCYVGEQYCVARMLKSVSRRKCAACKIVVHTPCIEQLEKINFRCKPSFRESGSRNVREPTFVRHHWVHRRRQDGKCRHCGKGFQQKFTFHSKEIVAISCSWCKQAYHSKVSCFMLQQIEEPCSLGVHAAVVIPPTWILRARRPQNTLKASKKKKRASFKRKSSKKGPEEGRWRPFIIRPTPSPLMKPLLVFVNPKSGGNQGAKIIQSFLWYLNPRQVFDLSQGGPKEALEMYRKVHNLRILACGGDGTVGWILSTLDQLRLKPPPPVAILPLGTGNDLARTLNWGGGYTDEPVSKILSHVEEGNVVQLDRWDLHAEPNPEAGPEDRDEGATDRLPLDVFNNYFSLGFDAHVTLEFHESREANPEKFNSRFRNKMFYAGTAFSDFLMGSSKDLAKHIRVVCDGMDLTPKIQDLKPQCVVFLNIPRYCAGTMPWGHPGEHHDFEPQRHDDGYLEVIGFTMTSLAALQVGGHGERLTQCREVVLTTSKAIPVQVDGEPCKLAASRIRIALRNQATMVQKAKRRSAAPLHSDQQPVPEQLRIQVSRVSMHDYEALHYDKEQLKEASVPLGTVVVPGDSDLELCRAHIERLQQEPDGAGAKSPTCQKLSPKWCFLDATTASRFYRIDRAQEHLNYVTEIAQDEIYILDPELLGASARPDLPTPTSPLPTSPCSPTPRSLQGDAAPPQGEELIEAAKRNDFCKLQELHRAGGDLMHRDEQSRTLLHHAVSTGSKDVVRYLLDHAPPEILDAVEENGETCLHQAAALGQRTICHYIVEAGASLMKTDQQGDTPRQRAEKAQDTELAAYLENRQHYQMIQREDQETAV

Structure (SMILES)	IC50 [nM]
C[C@H](C(N)=O)N(c1ccc(F)cc1)c1nc(N)c(C(=O)c2ccccc2)s1 [Example 61.2, (R)-2-(N-(4-amino-5-benzoyl-thiazol-2-yl)-4-fluoro-anilino)propanamide]	108
CC(C(N)=O)N(c1ccc(F)cc1)c1nc(N)c(C(=O)c2ccc(OC(F)(F)F)cc2)s1 (single isomer, unassigned) [Example 40.2, 2-(N-[4-amino-5-[4-(trifluoromethoxy)benzoyl]thiazol-2-yl]-4-fluoro-anilino)propanamide]	7.08
CC(C(N)=O)N(c1ccc(F)cc1)c1nc(N)c(C(=O)c2ccc(NC(=O)C3CC3)cc2)s1 (racemic) [Example 177, rac-4-[4-[4-amino-2-(N-(2-amino-1-methyl-2-oxo-ethyl)-4-fluoro-anilino)thiazole-5-carbonyl]phenyl]cyclopropanecarboxamide]	40
CC(C(N)=O)N(c1ccc(Cl)c(OC(F)(F)F)c1)c1nc(N)c(C(=O)c2ccccc2)s1 (racemic) [Example 236, rac-2-[N-(4-amino-5-benzoyl-thiazol-2-yl)-4-chloro-3-(trifluoromethoxy)anilino]propanamide]	730
Cc1ccccc1N(c1nc(N)c(C(=O)c2ccccc2)s1)C(C)C(N)=O (racemic) [Example 77, rac-2-(N-(4-amino-5-benzoyl-thiazol-2-yl)-2-methyl-anilino)propanamide]	533
C[C@H](C(N)=O)N(c1ccc(F)c(F)c1)c1nc(N)c(C(=O)c2ccc(OC(F)F)cc2)s1 [Example 49.2, (R)-2-(N-[4-amino-5-[4-(difluoromethoxy)benzoyl]thiazol-2-yl]-3,4-difluoro-anilino)propanamide]	2.1
CC(C(N)=O)N(c1ccc2c(c1)OC(F)(F)O2)c1nc(N)c(C(=O)c2ccccc2)s1 (racemic) [Example 197, rac-2-[(4-amino-5-benzoyl-thiazol-2-yl)-(2,2-difluoro-1,3-benzodioxol-5-yl)amino]propanamide]	90
CC(C(N)=O)N(c1ccc(C(F)(F)F)cc1)c1nc(N)c(C(=O)c2ccc(OC(F)F)cc2)s1 (racemic) [Example 43, rac-2-[N-[4-amino-5-[4-(difluoromethoxy)benzoyl]thiazol-2-yl-4-(trifluoromethyl)anilino]propanamide]	11.1
CC(C(N)=O)N(c1ccc(F)cc1)c1nc(N)c(C(=O)c2ccc(OCC(=O)NC3CCCC3)cc2)s1 (racemic) [Example 132, rac-2-(N-[4-amino-5-[4-[2-(cyclopentylamino)-2-oxo-ethoxy]benzoyl]thiazol-2-yl]-4-fluoro-anilino)propanamide]	93.3
CC(C(N)=O)N(c1ccc(F)c(F)c1)c1nc(N)c(C(=O)c2ccncc2)s1 (racemic) [Example 50, rac-2-(N-[4-amino-5-(pyridine-4-carbonyl)thiazol-2-yl]-3,4-difluoro-anilino)propanamide]	378
CC(C(N)=O)N(c1ccc(F)cc1)c1nc(N)c(C(=O)c2ccc(OC(F)F)nc2)s1 (single isomer, unassigned) [Example 162.2, 2-(N-[4-amino-5-[6-(difluoromethoxy)pyridine-3-carbonyl]thiazol-2-yl]-4-fluoro-anilino)propanamide]	6570
CC(C(N)=O)N(c1ccc(F)cc1)c1nc(N)c(C(=O)c2ccc(OCC(=O)NCc3ccccc3Cl)cc2)s1 (racemic) [Example 120, rac-2-(N-[4-amino-5-[4-[2-[(2-chlorophenyl)methylamino]-2-oxo-ethoxy]benzoyl]thiazol-2-yl]-4-fluoro-anilino)propanamide]	16.7
CC(C(N)=O)N(c1ccc(F)cc1)c1nc(N)c(C(=O)c2ccc(OCC(=O)N3Cc4ccccc4C3)cc2)s1 (racemic) [Example 134, rac-2-(N-[4-amino-5-[4-(2-isoindolin-2-yl-2-oxo-ethoxy)benzoyl]thiazol-2-yl]-4-fluoro-anilino)propanamide]	76.8
CC(C(N)=O)N(c1nc(N)c(C(=O)c2ccccc2)s1)c1ccc(OC(F)(F)F)cc1Cl (racemic) [Example 240, rac-2-[N-(4-amino-5-benzoyl-thiazol-2-yl)-2-chloro-4-(trifluoromethoxy)anilino]propanamide]	1330
CC(C(N)=O)N(c1ccc(Cl)c(F)c1)c1nc(N)c(C(=O)c2ccncc2)s1 (racemic) [Example 56, rac-2-(N-[4-amino-5-(pyridine-4-carbonyl)thiazol-2-yl]-4-chloro-3-fluoro-anilino)propanamide]	120
COc1ccc(C(=O)c2sc(N(c3ccc(F)cc3)C(C)C(N)=O)nc2C)cc1 (racemic) [Example 176, rac-2-(4-fluoro-N-[5-(4-methoxybenzoyl)-4-methyl-thiazol-2-yl]anilino)propanamide]	91

Structure (SMILES)	IC50 [nM]
Cc1ccc(N(c2nc(N)c(C(=O)c3ccccc3)s2)C(C)C(N)=O)cc1 (racemic) [Example 73, rac-2-(N-(4-amino-5-benzoyl-thiazol-2-yl)-4-methyl-anilino)propanamide]	148
CCC(C(N)=O)N(c1ccc(F)cc1)c1nc(N)c(C(=O)c2ccccc2)s1 (racemic) [Example 68, rac-2-[(4-amino-5-benzoyl-1,3-thiazol-2-yl)(4-fluorophenyl)amino]butanamide]	457
CC(C(N)=O)N(c1ccc(F)cc1)c1nc(N)c(C(=O)c2ccc(OCC(=O)Nc3ccc4ncccc4c3)cc2)s1 (racemic) [Example 108, rac-2-(N-(4-amino-5-[4-[2-oxo-2-(6-quinolylamino)ethoxy]benzoyl]thiazol-2-yl]-4-fluoro-anilino)propanamide]	19.4
CC(C)Oc1ccc(N(c2nc(N)c(C(=O)c3ccccc3)s2)C(C)C(N)=O)cc1 (racemic) [Example 3, rac-2-(N-(4-amino-5-benzoyl-thiazol-2-yl)-4-isopropoxy-anilino)propanamide]	927
COCCNC(=O)c1ccc(C(=O)c2sc(N(c3ccc(F)cc3)C(C)C(N)=O)nc2N)cc1 (racemic) [Example 264, rac-4-[4-amino-2-(N-(2-amino-1-methyl-2-oxo-ethyl)-4-fluoro-anilino)thiazole-5-carbonyl]-N-(2-methoxyethyl)benzamide]	376
CC(NC(=O)COc1ccc(C(=O)c2sc(N(c3ccc(F)cc3)C(C)C(N)=O)nc2N)cc1)c1ccccc1 (racemic) [Example 125, 2-(N-[4-amino-5-[4-[2-oxo-2-(1-phenylethylamino)ethoxy]benzoyl]thiazol-2-yl]-4-fluoro-anilino)propanamide]	44
CC(C(N)=O)N(c1ccc(OC(F)(F)F)c(Cl)c1)c1nc(N)c(C(=O)c2ccc(OC(F)F)nc2)s1 (racemic) [Example 226, rac-2-[N-[4-amino-5-[6-(difluoromethoxy)pyridine-3-carbonyl]thiazol-2-yl]-3-chloro-4-(trifluoromethoxy)anilino]propanamide]	87
COc1cccc(CNC(=O)COc2ccc(C(=O)c3sc(N(c4ccc(F)cc4)C(C)C(N)=O)nc3N)cc2)c1 (racemic) [Example 95, rac-2-(N-(4-amino-5-[4-[2-[(3-methoxyphenyl)methylamino]-2-oxo-ethoxy]benzoyl]thiazol-2-yl]-4-fluoro-anilino)propanamide]	39
CCC(C(N)=O)N(c1ccccc1)c1nc(N)c(C(=O)c2ccccc2)s1 (racemic) [Example 67, rac-2-[(4-amino-5-benzoyl-1,3-thiazol-2-yl)(phenyl)amino]butanamide]	2270
CC(C(N)=O)N(c1ccc(F)cc1)c1nc(N)c(C(=O)c2ccc(OC(F)F)cc2)s1 (racemic) [Example 44, rac-2-(N-[4-amino-5-[4-(difluoromethoxy)benzoyl]thiazol-2-yl]-4-fluoro-anilino)propanamide]	8.83
CC(C(N)=O)N(c1ccc(F)c(F)c1)c1nc(N)c(C(=O)c2ccc(O)cc2)s1 (single isomer, unassigned; enantiomer 1) [Example 287, 2-(N-[4-amino-5-(4-hydroxybenzoyl)thiazol-2-yl]-3,4-difluoro-anilino)propanamide (enantiomer 1)]	18
CC(C(N)=O)N(c1ccc(F)c(F)c1)c1nc(N)c(C(=O)c2ccc(OCc3ccccc3)cc2)s1 (racemic) [Example 165, rac-2-(N-[4-amino-5-(4-benzyloxybenzoyl)thiazol-2-yl]-3,4-difluoro-anilino)propanamide]	3
COc1ccc(C(=O)c2sc(N(c3ccc(C(F)F)cc3)C(C)C(N)=O)nc2N)cc1 (racemic) [Example 243, rac-2-[N-[4-amino-5-(4-methoxybenzoyl)thiazol-2-yl]-4-(difluoromethyl)anilino]propanamide]	51
COc1cc(C(=O)c2sc(N(c3ccc(F)cc3)C(C)C(N)=O)nc2N)ccn1 (racemic) [Example 190, rac-2-(N-[4-amino-5-(2-methoxypyridine-4-carbonyl)thiazol-2-yl]-4-fluoro-anilino)propanamide]	553
CC(C(N)=O)N(c1ccc(O)cc1)c1nc(N)c(C(=O)c2ccc(OC(F)F)cc2)s1 (single isomer, unassigned) [Example 291, 2-(N-[4-amino-5-[4-(difluoromethoxy)benzoyl]thiazol-2-yl]-4-hydroxy-anilino)propanamide (single enantiomer)]	178
